In paper PMC8037406, “Symbiotic NCR Peptide Fragments Affect the Viability, Morphology and Biofilm Formation of Candida Species” (International Journal of Molecular Sciences, 2021):
Like-named read-outs stand apart in the source and are kept apart here. Where a SMILES comes first, the peptide text is derived from it.

Columns and labels:
[1] = test system: C. albicans SZMC 1458 biofilm; assay: Biofilm formation assay, XTT; format: cell-based, Candida albicans; details: 72 h, 37 °C, 5 % CO2, 1/8AIM medium, p ≤ 0.0001
C. tropicalis CBS 94 = assay: Yeast-hypha morphology, bright-field microscopy; format: cell-based, Candida tropicalis; details: 1.56 µM peptide, 48 h, 1/8AIM medium
Excerpt: (§1) As hyphae formation is an important virulence factor, we investigated how the broad range activity peptides, NCR335C17–33, NCR169C17–38 and NCR169C17–38ox affect the morphological switch of C. albicans ATCC 10231 and C. tropicalis between the hyphal and yeast growth forms at sub-lethal concentrations (Figure 1). […] However, not only the morphology changed, but the cell number also declined, particularly in the latter case.
(§2) To induce morphological change of C. albicans and C. tropicalis YNB medium was changed for eight-fold diluted AIM-V+AlbuMAX (BSA) medium (Gibco, Thermo Fisher Scientific, Dublin, Ireland) referred to as 1/8AIM in the text.
(§3) Bright-field microscopy. The morphology of C. albicans ATCC 10231 and C. tropicalis cells was examined after 48 h incubation with the selected peptides (NCR335C17–33 and NCR169C17–38) by Zeiss Axio Observer inverted microscope (Carl Zeiss AG, Jena, Germany). The concentration of the NCR335C17–33 was 1.56 and 3.12 µM, NCR169C17–38 1.56 or 3.12 µM while NCR169C17–38ox 0.78 or 3.12 µM, the initial cell concentration was set to 4 × 10^4 cell/mL. Cells cultivated without peptides were used as control.

[2] = test system: C. tropicalis CBS 94 biofilm; assay: Morphology of biofilm-located cells, scanning electron microscopy; format: cell-based, Candida tropicalis; details: SEM, 72 h, 37 °C, 1.56 µM peptide
Candida auris 0381 = assay: microbe, parasite or virus in culture; format: cell-based; details: micro-dilution, YNB medium, 4 × 10^4 cell/mL, 48 h, 30 °C, OD 620 nm; MIC = growth inhibition ≥90%; peptides 25 to 1.56 µM, fluconazole 200 to 0.78 µM; three biological repeats in triplicates; further: key: -: no growth inhibition was observed
Procedure: (§4) The antifungal activity of all the 14 peptides was tested against the following opportunistic human pathogen Candida species and strains: C. albicans strains ATCC 10231, SC 5314 and SZMC 1458, C. auris 0381, C. glabrata CBS 138, C. parapsilosis CBS 604 and C. tropicalis CBS 94.
(§5) All the Candida strains (Table 4) were grown overnight in YPD medium (1% pepton, 1% dextrose, 0.5% yeast extract) at 30 °C in water bath shaker prior to each experiments. The cells were harvested by centrifugation (5 min, 3000× g) washed twice with sterile distilled water and suspended in 5-fold diluted Difco Yeast Nitrogen Base w/o Amino Acids medium (Becton, Dickinson and Company, Sparks, MD, USA) supplemented with 1% dextrose, referred to as YNB medium in the text. Cells were counted in Bürker chamber and diluted to the proper concentration.
(§6) The growth inhibition of the peptides listed in Table 1 was tested in 96-well microtiter plates on Candida strains. The minimal inhibitory concentration (MIC) was determined with the micro-dilution method by adding 5 µL serially two-fold-diluted peptide solution to 95 µL of cell suspension (4 × 10^4 cell/mL) in YNB medium. After 48 h of incubation at 30 °C the optical density of the cultures was measured at 620 nm in SPECTROstar Nano plate reader (BMG LabTech, Offenburg, Germany). Minimal inhibitory concentration was defined as growth inhibition ≥90% compared to 100% growth of the untreated control. The experiments were carried out in three biological repeats always in triplicates.

[3] = test system: C. albicans ATCC 10231 biofilm; assay: Biofilm formation assay, XTT; format: cell-based, Candida albicans; details: 72 h, 37 °C, 5 % CO2, 1/8AIM medium, p ≤ 0.0001
C. auris = details: for reduction of MIC in the synergistic combination: compared with single use
Procedure: Amphotericin B, due to its high toxicity was not included in this assay.
The effects of the different combinations of fluconazole and NCR335C17–33, NCR169C17–38 or NCR169C17–38ox were determined by standard checkerboard titration method. The fluconazole was tested in a concentration range from 6.25 to 75 µM, NCR169C17–38 and NCR169C17–38ox from 0.78 to 12.50 µM, NCR335C17–33 from 1.56 to 25 µM. The initial cell concentration in each well was 4 × 10^4 cell/mL. After the incubation for 72 h at 30 °C, the optical density of the cultures was detected at 620 nm in SPECTROstar Nano plate reader (BMG LabTech, Offenburg, Germany). The inhibitory concentrations were determined for each compound alone and in combinations. The experiments were carried out at least three times. The effect of combinations was evaluated by fractional inhibitory concentration (FIC) index. FIC = FICA + FICB. FICA = (MICA in combination)/(MICA alone); FICB = (MICB in combination)/(MICB alone)

C. albicans ATCC 10231 = assay: Yeast-hypha morphology, bright-field microscopy; format: cell-based, Candida albicans; details: 3.12 µM peptide, 48 h, 1/8AIM medium, sub-lethal concentration
Excerpt: as §1, §2, §3

[4] = test system: C. albicans SC 5314 biofilm; assay: Biofilm formation assay, XTT; format: cell-based, Candida albicans; details: 72 h, 37 °C, 5 % CO2, 1/8AIM medium, p ≤ 0.0001
[5] = test system: C. tropicalis CBS 94 biofilm; assay: Biofilm formation assay, XTT; format: cell-based, Candida tropicalis; details: 72 h, 37 °C, 5 % CO2, 1/8AIM medium, p ≤ 0.0001
Candida cells = assay: Fungicide effect, spotting of treated cells on solid YPD medium; format: cell-based, Candida species; details: 1.56–25 µM, 24 h treatment, dilutions spotted on solid YPD medium, 48 h, 30 °C
Procedure: To determine whether the inhibitory effect of the peptides is generated by fungistatic or fungicide action, the Candida cells were treated with the peptides in the same concentration range (1.56–25 µM) as in the growth inhibition assay. After 24 h 5 µL sample from the untreated control cells and from the peptide treated cells was added to 95 µL water and diluted further 10- and 100-fold. From each dilution, 5 µL was placed on solid medium and the growth of the control and peptide treated cells was compared after 48 h incubation at 30 °C. This assay confirmed that all the effective peptides, NCR335N1–19, NCR335N7–21, NCR335C1–33, NCR335C13–33, NCR335C17–33, NCR169C17–38, NCR169C17–38ox, NCR169C17–38W10,20/A provoked growth inhibition through fungicidal actions (Figure A2). The fungicide concentrations, required for the complete elimination of the Candida cells, were either equal to or twice higher than the minimum inhibitory concentrations presented in Table 2.
The same initial experimental setting was used to determine the fungicide effect of the peptides. Five µL samples were taken from the cultures after 24 h and were added to 95 µL sterile distilled water, and diluted to 10- and 100-fold (indicated as 10^4, 10^3 and 10^2 based on the cell number of the control culture in Figure A2). Five µL from each dilution were placed on solid YPD medium and the growth of the strains was detected after 48 h incubation at 30 °C.

[6] = test system: C. albicans ATCC 10231 biofilm; assay: Morphology of biofilm-located cells, scanning electron microscopy; format: cell-based, Candida albicans; details: SEM, 72 h, 37 °C, sub-lethal concentrations
[7] = test system: Candida parapsilosis CBS 604; assay: microbe, parasite or virus in culture; format: cell-based; details: micro-dilution, YNB medium, 4 × 10^4 cell/mL, 48 h, 30 °C, OD 620 nm; MIC = growth inhibition ≥90%; peptides 25 to 1.56 µM, fluconazole 200 to 0.78 µM; three biological repeats in triplicates; further: key: -: no growth inhibition was observed
Procedure: as §4, §5, §6

[8] = NCR169C17–38 + NCR335C17–33, C. auris
[9] = NCR169C17–38 + NCR169C17–38ox, C. auris
[10] = checkerboard, C. auris, 72 h, 30 °C, drug A fluconazole + drug B NCR169C17–38

| SMILES | concentration significantly inhibiting biofilm formation, relative to MIC [1] | effect on hyphal/yeast growth form (C. tropicalis CBS 94) | morphology of cells in the biofilm [2] | concentration significantly inhibiting biofilm formation, relative to MIC [3] | Action (C. auris; [8]) | effect on hyphal growth (C. albicans ATCC 10231) | concentration significantly inhibiting biofilm formation, relative to MIC [4] | concentration significantly inhibiting biofilm formation, relative to MIC [5] | growth inhibition by fungistatic or fungicide action (Candida cells) | morphology of cells in the biofilm [6] | also measured |
| --- | --- | --- | --- | --- | --- | --- | --- | --- | --- | --- | --- |
| CC[C@H](C)[C@H](NC(=O)[C@@H]1CCCN1C(=O)[C@@H](NC(=O)[C@H](CS)NC(=O)[C@H](Cc1ccc(O)cc1)NC(=O)[C@H](CO)NC(=O)[C@H](CCCCN)NC(=O)[C@H](CCCNC(=N)N)NC(=O)[C@H](CS)NC(=O)[C@H](CCCNC(=N)N)NC(=O)[C@@H](NC(=O)[C@H](CC(N)=O)NC(=O)[C@H](C)NC(=O)[C@H](CCCNC(=N)N)NC(=O)[C@H](CCCNC(=N)N)NC(=O)[C@H](CC(C)C)NC(=O)[C@@H](N)CCCCN)C(C)C)C(C)C)C(N)=O [NCR335C17–33] (H-KLRRANVRCRKSYCVPI-NH2; N-terminus assumed) | half MIC | shifted to the yeast form | practically only the yeast form was present | half MIC | Synergism | completely inhibited the hyphal growth | half MIC | MIC | fungicidal | reduced the abundance of the hyphal form | Minimal inhibitory concentration, Cau 0381 (Candida auris 0381): -; concentration of drug B for the indicated action (C. auris; checkerboard, C. auris, 72 h, 30 °C, drug A NCR169C17–38 + drug B NCR335C17–33): 3.12 µM; FICB (C. auris; checkerboard, C. auris, 72 h, 30 °C, drug A NCR169C17–38 + drug B NCR335C17–33, * fictitious value, 25 µM used as MIC of NCR335C17–33): ≤ 0.25; Action (C. auris; fluconazole + NCR335C17–33, C. auris): Indifferent |
| CC[C@H](C)[C@H](NC(=O)[C@H](CCCCN)NC(=O)[C@H](Cc1ccccc1)NC(=O)[C@H](CC(C)C)NC(=O)[C@@H]1CCCN1C(=O)[C@H](CCCCN)NC(=O)[C@H](CCCCN)NC(=O)[C@H](CO)NC(=O)[C@@H](N)CCCCN)C(=O)N[C@@H](Cc1c[nH]c2ccccc12)C(=O)N[C@@H](CCCCN)C(=O)N[C@@H](CS)C(=O)N[C@H](C(=O)N[C@@H](CCC(=O)O)C(=O)N[C@@H](CC(N)=O)C(=O)N[C@H](C(=O)N[C@@H](CS)C(=O)N[C@H](C(=O)N[C@@H](CC(C)C)C(=O)N[C@@H](Cc1c[nH]c2ccccc12)C(=O)N[C@@H](Cc1ccc(O)cc1)C(=O)N[C@@H](CCCCN)C(N)=O)C(C)C)C(C)C)C(C)C [NCR169C17–38] (H-KSKKPLFKIWKCVENVCVLWYK-NH2; N-terminus assumed) | MIC | shifted to the yeast form | the cell number was drastically reduced, and the yeast form was also dominant | half MIC | Synergism | completely inhibited the hyphal growth | one-fourth of the MIC | half MIC | fungicidal | reduced the abundance of the hyphal form | Minimal inhibitory concentration, Cp CBS 604 [7]: -; Action (C. auris; [9]): Synergism; reduction of MIC in the synergistic combination (C. auris; [9]): 2 ×; reduction of MIC in the synergistic combination (C. auris; NCR169C17–38 + NCR335C17–33 (3.12 μM), C. auris): 4 ×; concentration of drug A for the indicated action (C. auris; checkerboard, C. auris, 72 h, 30 °C, drug A NCR169C17–38 + drug B NCR169C17–38ox): 3.12 µM; FICB (C. auris; [10]): 0.125; concentration of drug B for the indicated action (C. auris; [10]): 0.78 µM; Action (C. auris; fluconazole + NCR169C17–38, C. auris): Additive |
